Assay results as given in paper PMC10385824, “Antiproliferative and Tubulin-Destabilising Effects of 3-(Prop-1-en-2-yl)azetidin-2-Ones and Related Compounds in MCF-7 and MDA-MB-231 Breast Cancer Cells” (Pharmaceuticals, 2023).
Read-outs that look alike come from different tables or passages of the source.

What was measured:
UO-31 = assay: NCI-60 SRB screen, renal cancer; format: cell-based, human; settings: Homo sapiens; UO-31; five dose 0.01–100 µM, 48 h; read-out: GI50
HCT-15 = assay: NCI-60 SRB screen, colon cancer; format: cell-based, human; settings: Homo sapiens; HCT-15; five dose 0.01–100 µM, 48 h; read-out: GI50
A498 = assay: NCI-60 SRB screen, renal cancer; format: cell-based, human; settings: Homo sapiens; A498; five dose 0.01–100 µM, 48 h; read-out: GI50
SK-MEL-5 = assay: NCI-60 SRB screen, melanoma; format: cell-based, human; settings: Homo sapiens; SK-MEL-5; five dose 0.01–100 µM, 48 h; read-out: GI50
T-47D = assay: NCI-60 SRB screen, breast cancer; format: cell-based, human; settings: Homo sapiens, T47D; T-47D; five dose 0.01–100 µM, 48 h; read-out: GI50
K-562 = assay: NCI-60 SRB screen, leukemia; format: cell-based, human; settings: Homo sapiens, K562, 48 h; read-out: GI50
OVCAR-3 = assay: NCI-60 SRB screen, ovarian cancer; format: cell-based, human; settings: Homo sapiens; OVCAR-3; five dose 0.01–100 µM, 48 h; read-out: GI50
TK-10 = assay: NCI-60 SRB screen, renal cancer; format: cell-based, human; settings: Homo sapiens; TK-10; five dose 0.01–100 µM, 48 h; read-out: GI50
PC-3 = assay: NCI-60 SRB screen, prostate cancer; format: cell-based, human; settings: Homo sapiens; PC-3; five dose 0.01–100 µM, 48 h; read-out: GI50
M14 = assay: NCI-60 SRB screen, melanoma; format: cell-based, human; settings: Homo sapiens; M14; five dose 0.01–100 µM, 48 h; read-out: GI50
MALME-3M = assay: NCI-60 SRB screen, melanoma; format: cell-based, human; settings: Homo sapiens; MALME-3M; five dose 0.01–100 µM, 48 h; read-out: GI50
MCF-7 = assay: cells; settings: Homo sapiens, MCF7, 48 h
MDA-MB-468 = assay: NCI-60 SRB screen, breast cancer; format: cell-based, human; settings: Homo sapiens; MDA-MB-468; five dose 0.01–100 µM, 48 h; read-out: GI50
NCI-H552 = assay: NCI-60 SRB screen, non-small cell lung cancer; format: cell-based, human; settings: Homo sapiens; NCI-H552; five dose 0.01–100 µM, 48 h; read-out: GI50
NCI-H460 = assay: NCI-60 SRB screen, non-small cell lung cancer; format: cell-based, human; settings: Homo sapiens; NCI-H460; five dose 0.01–100 µM, 48 h; read-out: GI50
HOP-62 = assay: NCI-60 SRB screen, non-small cell lung cancer; format: cell-based, human; settings: Homo sapiens; HOP-62; five dose 0.01–100 µM, 48 h; read-out: GI50
[1] = system: NCI 60 human cancer cell line panel; assay: NCI 60 cell line screen (SRB), panel values; settings: for IC (TGI (total growth inhibition)): read-out: Mean TGI
OVCAR-4 = assay: NCI-60 SRB screen, ovarian cancer; format: cell-based, human; settings: Homo sapiens; OVCAR-4; five dose 0.01–100 µM, 48 h; read-out: GI50
DU-145 = assay: NCI-60 SRB screen, prostate cancer; format: cell-based, human; settings: Homo sapiens; DU-145; five dose 0.01–100 µM, 48 h; read-out: GI50
OVCAR-5 = assay: NCI-60 SRB screen, ovarian cancer; format: cell-based, human; settings: Homo sapiens; OVCAR-5; five dose 0.01–100 µM, 48 h; read-out: GI50
SNB-19 = assay: NCI-60 SRB screen, CNS cancer; format: cell-based, human; settings: Homo sapiens; SNB-19; five dose 0.01–100 µM, 48 h; read-out: GI50
UACC-62 = assay: NCI-60 SRB screen, melanoma; format: cell-based, human; settings: Homo sapiens; UACC-62; five dose 0.01–100 µM, 48 h; read-out: GI50
NCI-H23 = assay: NCI-60 SRB screen, non-small cell lung cancer; format: cell-based, human; settings: Homo sapiens; NCI-H23; five dose 0.01–100 µM, 48 h; read-out: GI50
NCI/ADR-RES = assay: NCI-60 SRB screen, ovarian cancer; format: cell-based, human; settings: Homo sapiens, five dose 0.01–100 µM, 48 h, read-out: GI50
HS 578T = assay: NCI-60 SRB screen, breast cancer; format: cell-based; settings: Homo sapiens; HS 578T; five dose 0.01–100 µM, 48 h; read-out: GI50
SNB-75 = assay: NCI-60 SRB screen, CNS cancer; format: cell-based, human; settings: Homo sapiens; SNB-75; five dose 0.01–100 µM, 48 h; read-out: GI50
HCT-116 = assay: NCI-60 SRB screen, colon cancer; format: cell-based, human; settings: Homo sapiens; HCT-116; five dose 0.01–100 µM, 48 h; read-out: GI50
[2] = system: MCF-7 human breast cancer cells; assay: cells
MOLT-4 = assay: NCI-60 SRB screen, leukemia; format: cell-based, human; settings: Homo sapiens; MOLT-4; five dose 0.01–100 µM, 48 h; read-out: GI50
SK-MEL-2 = assay: NCI-60 SRB screen, melanoma; format: cell-based, human; settings: Homo sapiens; SK-MEL-2; five dose 0.01–100 µM, 48 h; read-out: GI50
EKVX = assay: NCI-60 SRB screen, non-small cell lung cancer; format: cell-based, human; settings: Homo sapiens, five dose 0.01–100 µM, 48 h, read-out: GI50
[3] = system: MDA-MB-231 human breast cancer cells; assay: Alamar Blue cell viability (antiproliferative) assay; format: cell-based; settings: read-out: IC50
[4] = Homo sapiens, 60 cell, read-out: Mean GI50, mean over all NCI 60 cell lines
[5] = Homo sapiens, 60 cell, read-out: Mean LC50

COc1ccc(C2C(C(C)C)C(=O)N2c2cc(OC)c(OC)c(OC)c2)cc1OP(=O)(O)O (centres unmarked) [15b, 5-(3-Isopropyl-1-(3,4,5-trimethoxyphenyl)-4-oxoazetidin-2-yl)-2-methoxyphenyl dihydrogen phosphate]
GI50 (UO-31): 0.538 µM
GI50 (HCT-15): 0.298 µM
GI50 (A498): 0.104 µM
GI50 (SK-MEL-5): 0.164 µM
GI50 (T-47D): > 100 µM
GI50 (K-562): 0.374 µM
GI50 (OVCAR-3): 0.27 µM
GI50 (TK-10): 0.695 µM
GI50 (PC-3): 0.278 µM
GI50 (M14): 0.291 µM
GI50 (MALME-3M): > 100 µM
GI50 (MCF-7): 0.244 µM
GI50 (MDA-MB-468): 0.273 µM
GI50 (NCI-H552): 0.237 µM
GI50 (NCI-H460): 0.325 µM
GI50 (HOP-62): 0.374 µM
GI50 [1, 4]: 0.525 µM
CC50 [1, 5]: 93.3 µM
IC (TGI (total growth inhibition)) ([1]; Homo sapiens, 60 cell): 44.7 µM
GI50 (OVCAR-4): 0.282 µM
GI50 (DU-145): 0.368 µM
GI50 (OVCAR-5): 2.34 µM
GI50 (SNB-19): 0.477 µM
GI50 (UACC-62): 0.131 µM
GI50 (NCI-H23): 0.368 µM
GI50 (NCI/ADR-RES): 0.212 µM
GI50 (HS 578T): 0.173 µM
GI50 (SNB-75): 0.116 µM
GI50 (HCT-116): 0.319 µM
IC50 ([2]; MCF7, 72 h, read-out: Antiproliferative Activity IC50): 145 ± 7.76 µM
GI50 (MOLT-4): 0.493 µM
GI50 (SK-MEL-2): 0.5 µM

C=C(C)C1C(=O)N(c2cc(OC)c(OC)c(OC)c2)C1c1ccc(OC)cc1 (centres unmarked) [9h, 4-(4-Methoxyphenyl)-1-(3,4,5-trimethoxyphenyl)-3-(prop-1-en-2-yl)azetidin-2-one]
GI50 (UO-31): 0.505 µM
GI50 (HCT-15): 0.0406 µM
GI50 (A498): 0.0243 µM
GI50 (SK-MEL-5): 0.0243 µM
GI50 (T-47D): 26.5 µM
GI50 (K-562): 0.041 µM
GI50 (OVCAR-3): 0.0254 µM
GI50 (EKVX): 0.0813 µM
GI50 (TK-10): 0.0965 µM
GI50 (PC-3): 0.0453 µM
GI50 (M14): 0.221 µM
GI50 (MALME-3M): > 100 µM
GI50 (MCF-7): 0.0368 µM
GI50 (MDA-MB-468): 0.025 µM
GI50 (NCI-H552): 0.0222 µM
GI50 (NCI-H460): 0.0356 µM
GI50 (HOP-62): 0.0576 µM
CC50 ([1]; Homo sapiens, 60 cell, 9 h, read-out: LC50): > 100 µM
GI50 [1, 4]: < 0.0912 µM
CC50 [1, 5]: 87.1 µM
IC (TGI (total growth inhibition)) ([1]; Homo sapiens, 60 cell): 15.5 µM
GI50 ([1]; read-out: Mean GI50, mean over all NCI 60 cell lines): 0.0589 µM
GI50 (OVCAR-4): 0.0391 µM
GI50 (DU-145): 0.0291 µM
GI50 (OVCAR-5): 0.0983 µM
GI50 (SNB-19): 0.0675 µM
GI50 (UACC-62): 0.0392 µM
GI50 (NCI-H23): 0.0237 µM
GI50 (NCI/ADR-RES): 0.0213 µM
GI50 (HS 578T): 0.0391 µM
GI50 (SNB-75): 0.038 µM
GI50 (HCT-116): 0.0317 µM
IC50 [3]: 0.0313 µM
IC50 ([2]; MCF7, MCF-7): 0.033 µM
GI50 (MOLT-4): 0.0397 µM
GI50 (SK-MEL-2): 18.6 µM
